Measured values: PubChem BioAssay (NCI)
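Tested at 5 concentrations; 48 h exposure; 96-well plates; endpoints linearly interpolated, else capped at highest concentration. TGI: total growth inhibition.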 Where a SMILES comes first, the peptide text is derived from it. [ ]: non-standard residue; d: D form. The star is where a group is joined. Hyp = O=C(O)[CH]1C[CH](O)CN1; Cbz = O=C(OCc1ccccc1)*

Key:
Experiment in all cases: NCI-60 cell line screen, 48 h
KM12 colon = system: KM12 colon
SW-620 colon = system: SW-620 colon
SNB-19 CNS = system: SNB-19 CNS
NCI-H226 lung = system: NCI-H226 lung
CCRF-CEM leukemia = system: CCRF-CEM leukemia
HCT-15 colon = system: HCT-15 colon
UACC-257 melanoma = system: UACC-257 melanoma
M14 melanoma = system: M14 melanoma
HL-60(TB) leukemia = system: HL-60(TB) leukemia
SK-MEL-5 melanoma = system: SK-MEL-5 melanoma
786-0 renal = system: 786-0 renal
RXF 393 renal = system: RXF 393 renal
NCI/ADR-RES ovarian = system: NCI/ADR-RES ovarian
OVCAR-8 ovarian = system: OVCAR-8 ovarian
HOP-92 NSCLC = system: HOP-92 NSCLC

Row | Compound | TGI (KM12 colon) [µM] | TGI (SW-620 colon) [µM] | TGI (SNB-19 CNS) [µM] | TGI (NCI-H226 lung) [µM] | TGI (CCRF-CEM leukemia) [µM] | TGI (HCT-15 colon) [µM] | TGI (UACC-257 melanoma) [µM] | TGI (M14 melanoma) [µM] | TGI (HL-60(TB) leukemia) [µM] | TGI (SK-MEL-5 melanoma) [µM] | TGI (786-0 renal) [µM] | TGI (RXF 393 renal) [µM] | TGI (NCI/ADR-RES ovarian) [µM] | TGI (OVCAR-8 ovarian) [µM] | TGI (HOP-92 NSCLC) [µM]
1 | NC(=O)CNC(=O)C1CC(O)CN1C(=O)C1CCCN1C(=O)OCc1ccccc1 (stereo not drawn) (Cbz-Pro-[Hyp]-Gly-NH2; configuration not given here) | > 100 | > 100 | > 100 | > 100 | > 100 | > 100 | > 100 | > 100 | > 100 | > 100 | > 100 | > 100 | > 100 | > 100 | –
2 | CCOC(=O)/C(=C/c1ccccc1)N(CC)CC | > 100 | > 100 | > 100 | > 100 | > 100 | > 100 | > 100 | > 100 | > 100 | > 100 | > 100 | – | – | > 100 | > 100
3 | CC1(C)OC2C(O1)[C@H]1OC(C(Cl)(Cl)Cl)=N[C@H]1C(I)[C@H]2N1C(=O)c2ccccc2C1=O (some centres not stated) | > 100 | > 100 | > 100 | > 100 | > 100 | > 100 | > 100 | > 100 | 44.4 | > 100 | > 100 | 88.6 | – | > 100 | > 100
4 | O=C(c1nc2ccc(Cl)cc2[nH]c1=O)C(O)c1ccco1 (configuration not stated) | – | > 100 | > 100 | > 100 | > 100 | 37.1 | > 100 | > 100 | > 100 | > 100 | > 100 | > 100 | – | – | > 100
5 | COC(=O)C(Cc1ccccc1)NP(=O)(O)OCC1OC(n2ccc(N)nc2=O)C(O)C1O (configuration not stated) | > 100 | > 100 | > 100 | > 100 | > 100 | > 100 | > 100 | > 100 | > 100 | > 100 | > 100 | – | > 100 | > 100 | > 100
6 | O=C(O)c1ccc2[nH]c(=O)oc2c1 | > 100 | > 100 | > 100 | > 100 | > 100 | > 100 | > 100 | > 100 | > 100 | – | > 100 | > 100 | > 100 | > 100 | –
7 | COC(=O)[C@H]1C2CC[C@@H]3C45C[C@@H](c6ccoc6)O[C@@H]4O[C@@H](O2)C31CCC5C (some centres not stated) | > 100 | > 100 | > 100 | > 100 | > 100 | > 100 | > 100 | > 100 | > 100 | > 100 | > 100 | – | – | > 100 | > 100
8 | CCOc1cc2cnc3c4cc(OC)c(OC)cc4ccc3c2cc1OC | > 100 | > 100 | > 100 | > 100 | 88.6 | > 100 | > 100 | > 100 | > 100 | > 100 | > 100 | > 100 | – | > 100 | > 100
9 | O=[N+]([O-])c1ccc2nc(/C=C(\O)c3ccccc3)c(NC34CC5CC(CC(C5)C3)C4)nc2c1 | > 10 | > 10 | – | > 10 | – | > 10 | > 10 | > 10 | – | > 10 | > 10 | > 10 | > 10 | > 10 | –
10 | CCOC(=O)/C=C(\C(=O)OCC)n1cc(C)c(=O)n(Cc2cn(COCCOC(C)=O)nn2)c1=O | 30.4 | > 100 | 39 | – | 5.95 | 55.4 | 33.7 | – | – | 50.5 | > 100 | 93.2 | 67.4 | 21.3 | 3.91
11 | CC(C)C1COC(C(C)(C)C2=N[C@@H](C(C)C)CO2)=N1 (some centres not stated) | > 100 | > 100 | > 100 | > 100 | > 100 | > 100 | > 100 | > 100 | > 100 | > 100 | > 100 | > 100 | – | > 100 | > 100
12 | COc1cc([N+](=O)[O-])cc2c1NC(=O)C2(C)SC (configuration not stated) | > 100 | > 100 | > 100 | > 100 | > 100 | > 100 | > 100 | > 100 | 47.2 | > 100 | > 100 | > 100 | > 100 | > 100 | –
13 | COc1cc(CO)cc2c1[nH]c1ccccc12 | > 25 | > 25 | > 25 | 5.27 | > 25 | > 25 | – | > 25 | > 25 | > 25 | > 25 | > 25 | – | > 25 | > 25
14 | Cc1[nH]c2[nH]c(=S)nc(NC(N)=S)c2c1Cc1ccccc1 | 40.7 | > 100 | > 100 | > 100 | > 100 | > 100 | > 100 | > 100 | 57.4 | 26.1 | 76.1 | – | > 100 | > 100 | > 100
15 | NC(=S)N/N=C(/CCN1CCCC1)CC(C1=C(O)C2=CCCCC2OC1=O)c1ccccc1 (configuration not stated) | > 100 | > 100 | > 100 | > 100 | > 100 | > 100 | > 100 | > 100 | > 100 | > 100 | > 100 | > 100 | – | > 100 | > 100
16 | O=C(c1nc2ccc(Cl)cc2[nH]c1=O)C(O)c1cccc([N+](=O)[O-])c1 (configuration not stated) | > 100 | – | > 100 | > 100 | > 100 | > 100 | > 100 | > 100 | 74.1 | > 100 | > 100 | > 100 | – | > 100 | > 100
